Laboratory results: PubChem BioAssay (NCI)
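Where inhibition never reached the appropriate level, the endpoint shown equals the highest concentration tested. Otherwise, values were interpolated linearly from a five-concentration, 48-hour dose response in 96-well plates. The concentration for 50% growth inhibition is given as GI50. TGI denotes the concentration required for complete inhibition of growth.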

Experiments:
Experiment in all cases: inhibition of tumour cell growth, NCI panel, 48 h
HCT-15 colon = test system: HCT-15 colon
SK-MEL-5 melanoma = test system: SK-MEL-5 melanoma
UACC-257 melanoma = test system: UACC-257 melanoma
K-562 leukemia = test system: K-562 leukemia
MCF7 breast = test system: MCF7 breast
SK-MEL-28 melanoma = test system: SK-MEL-28 melanoma
DU-145 prostate = test system: DU-145 prostate
HT29 colon = test system: HT29 colon

Row | Structure (SMILES) | GI50 (HCT-15 colon) [µM] | TGI (HCT-15 colon) [µM] | GI50 (SK-MEL-5 melanoma) [µM] | TGI (SK-MEL-5 melanoma) [µM] | GI50 (UACC-257 melanoma) [µM] | TGI (UACC-257 melanoma) [µM] | GI50 (K-562 leukemia) [µM] | TGI (K-562 leukemia) [µM] | GI50 (MCF7 breast) [µM] | TGI (MCF7 breast) [µM] | GI50 (SK-MEL-28 melanoma) [µM] | TGI (SK-MEL-28 melanoma) [µM] | GI50 (DU-145 prostate) [µM] | TGI (DU-145 prostate) [µM] | GI50 (HT29 colon) [µM] | TGI (HT29 colon) [µM]
1 | O=C1c2cccc3c([N+](=O)[O-])ccc(c23)C(=O)N1CCCCl | 5.01 | > 10 | > 10 | > 10 | 7.14 | > 10 | 3.04 | > 10 | 3.03 | > 10 | 3.84 | > 10 | 4.56 | > 10 | 4.25 | > 10
2 | CC[C@]12C=CCN3CC[C@@]4(c5ccc(OC)cc5N(C)[C@H]4[C@@](O)(C(=O)OC)[C@@H]1OC(=O)CCCC[P+](c1ccccc1)(c1ccccc1)c1ccccc1)[C@@H]32 | 19.4 | 43.6 | 1.69 | 3.08 | 0.279 | 1.09 | 0.789 | 11.4 | 0.32 | 5.3 | 0.52 | 1.84 | 0.875 | 13.2 | 0.441 | 5.48
3 | CC(C)(C)n1nc(C2CC2)cc1NC(=O)Nc1ccc(Cl)cc1 | – | > 100 | – | > 100 | – | > 100 | – | > 100 | – | > 100 | – | > 100 | – | > 100 | – | > 100
4 | Nc1nc(=O)c2[nH]cnc2n1O | – | > 100 | – | > 100 | – | > 100 | – | > 100 | – | > 100 | – | > 100 | – | > 100 | – | > 100
5 | COc1ccc(-c2cc(=O)c3c(OC)c(O)c(OC)cc3o2)cc1 | – | > 100 | – | 94.9 | – | > 100 | – | > 100 | – | > 100 | – | > 100 | – | > 100 | – | > 100
6 | COc1ccc2c3c(ccc2c1)NC(C(=O)O)CC3 (centres undefined) | – | > 100 | – | 64.7 | – | > 100 | – | > 100 | – | > 100 | – | > 100 | – | > 100 | – | > 100
7 | O=C(NCCN1CCOCC1)Nc1nc2ccc(Sc3nnc4ccc(-c5ccc(F)cc5)nn34)cc2s1 | > 26.7 | > 100 | – | > 28.6 | 7.94 | > 21.2 | 2.31 | > 100 | – | > 100 | 2.59 | – | > 100 | > 100 | 2.79 | > 24.2
8 | O=C(/C=C/c1ccccc1)Nc1ncc(Cc2ccccc2)s1 | 0.066 | > 100 | 0.196 | 10.1 | 10.7 | > 100 | 0.0624 | > 37.1 | 0.139 | > 100 | 1.7 | > 100 | 0.396 | > 100 | 0.138 | > 32.8
9 | COc1ccc(NC(=O)COc2ccccc2)c(C(N)=O)c1 | 0.523 | > 100 | 1.11 | > 76.2 | > 100 | > 100 | 0.348 | > 100 | 0.538 | > 100 | 6.13 | > 100 | 2.31 | > 62.2 | 0.43 | > 100
